Experiments:
HepG2 = experiment: Cytotoxicity against human HepG2 cells assessed as reduction in cell viability incubated for 48 hrs by MTT assay; assay type: functional, cell-based; details: HepG2, 48 h
[1] = Genotoxicity in Salmonella typhimurium WP2 uvrA (pKM 101) by Ames test; assay type: toxicity; details: salmonella enterica subsp. enterica serovar typhimurium
MDA-MB-231 [2] = experiment: Induction of apoptosis in human MDA-MB-231 cells assessed as early apoptotic cells at 1 uM incubated for 72 hrs by annexinV-FITC and PI staining based flow cytometry analysis (reference value: 5.57 %); assay type: functional
[3] = Genotoxicity in Salmonella typhimurium TA97a by Ames test; assay type: toxicity; details: salmonella enterica subsp. enterica serovar typhimurium
[4] = Genotoxicity in Salmonella typhimurium TA1537 by Ames test; assay type: toxicity; details: salmonella enterica subsp. enterica serovar typhimurium
4T1 [5] = experiment: Induction of apoptosis in mouse 4T1 cells assessed as late apoptotic cells at 2.5 uM incubated for 72 hrs by annexinV-FITC and PI staining based flow cytometry analysis (reference value: 2.24 %); assay type: functional
[6] = target: Protein deacetylase HDAC6 (Homo sapiens, UniProt Q9UBN7); experiment: (§1) Inhibition of recombinant human N-terminal GST-tagged full length HDAC-6 expressed in baculovirus infected in Sf9 cells using Boc-Lys (q-Ac)-AMC as substrate incubated for 10 mins followed by substrate addition and measured after 30 mins by fluorescence based assay
Chain of Protein deacetylase HDAC6 (Q9UBN7 whole entry): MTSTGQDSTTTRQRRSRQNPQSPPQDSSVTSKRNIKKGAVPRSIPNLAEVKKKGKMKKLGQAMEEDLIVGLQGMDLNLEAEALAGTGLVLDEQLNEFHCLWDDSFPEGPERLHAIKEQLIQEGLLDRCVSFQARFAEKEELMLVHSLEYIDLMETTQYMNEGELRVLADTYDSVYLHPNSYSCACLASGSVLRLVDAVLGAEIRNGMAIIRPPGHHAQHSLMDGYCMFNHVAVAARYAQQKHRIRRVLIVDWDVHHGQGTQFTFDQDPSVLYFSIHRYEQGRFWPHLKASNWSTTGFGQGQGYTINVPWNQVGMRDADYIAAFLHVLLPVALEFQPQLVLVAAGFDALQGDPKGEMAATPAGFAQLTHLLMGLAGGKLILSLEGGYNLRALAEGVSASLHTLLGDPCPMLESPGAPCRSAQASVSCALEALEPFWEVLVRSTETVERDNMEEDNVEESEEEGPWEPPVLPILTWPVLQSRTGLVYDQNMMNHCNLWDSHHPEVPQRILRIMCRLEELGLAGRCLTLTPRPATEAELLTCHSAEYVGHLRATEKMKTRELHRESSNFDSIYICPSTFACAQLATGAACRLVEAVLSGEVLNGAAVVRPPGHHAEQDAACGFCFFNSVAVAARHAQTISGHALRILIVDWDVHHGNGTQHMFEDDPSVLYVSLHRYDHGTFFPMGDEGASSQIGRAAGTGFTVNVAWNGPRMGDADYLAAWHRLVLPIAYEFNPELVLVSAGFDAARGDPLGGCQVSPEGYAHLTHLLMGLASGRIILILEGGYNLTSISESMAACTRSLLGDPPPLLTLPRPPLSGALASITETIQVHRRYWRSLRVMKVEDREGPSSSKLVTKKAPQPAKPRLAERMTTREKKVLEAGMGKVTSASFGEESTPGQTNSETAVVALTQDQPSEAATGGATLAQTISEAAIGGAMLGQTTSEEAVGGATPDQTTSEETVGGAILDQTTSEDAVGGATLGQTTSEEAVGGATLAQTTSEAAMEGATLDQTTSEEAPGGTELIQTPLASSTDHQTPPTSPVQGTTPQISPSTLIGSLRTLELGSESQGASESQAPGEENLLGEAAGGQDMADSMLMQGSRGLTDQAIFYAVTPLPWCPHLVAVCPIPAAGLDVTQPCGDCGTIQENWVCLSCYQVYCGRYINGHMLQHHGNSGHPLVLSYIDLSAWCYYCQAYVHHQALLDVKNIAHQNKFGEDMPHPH

4T1 [7] = experiment: Induction of apoptosis in mouse 4T1 cells assessed as early apoptotic cells at 5 uM incubated for 72 hrs by annexinV-FITC and PI staining based flow cytometry analysis (reference value: 1.65 %); assay type: functional
MDA-MB-231 [8] = experiment: Induction of apoptosis in human MDA-MB-231 cells assessed as late apoptotic cells at 2.5 uM incubated for 72 hrs by annexinV-FITC and PI staining based flow cytometry analysis (reference value: 3.79 %); assay type: functional
4T1 [9] = experiment: Induction of cell cycle arrest in mouse 4T1 cells assessed as G2/M phase accumulation at 2 uM incubated for 24 hrs by PI staining based flow cytometry analysis (reference value: 38.51 %); assay type: functional
[10] = MRT in Sprague-Dawley rat at 20 mg/kg, po measured upto 12 hrs by LC-MS/MS analysis; assay type: ADME, organism-based; details: in vivo
4T1 [11] = experiment: Induction of apoptosis in mouse 4T1 cells assessed as late apoptotic cells at 1 uM incubated for 72 hrs by annexinV-FITC and PI staining based flow cytometry analysis (reference value: 2.24 %); assay type: functional
4T1 [12] = experiment: Induction of apoptosis in mouse 4T1 cells assessed as viable cells at 2.5 uM incubated for 72 hrs by annexinV-FITC and PI staining based flow cytometry analysis (reference value: 91.1 %); assay type: functional; details: read-out: Activity
A549 = experiment: Cytotoxicity against human A549 cells assessed as reduction in cell viability incubated for 48 hrs by MTT assay; assay type: functional, cell-based; details: A549, 48 h
4T1 [13] = experiment: Induction of cell cycle arrest in mouse 4T1 cells assessed as S phase accumulation at 2 uM incubated for 24 hrs by PI staining based flow cytometry analysis (reference value: 19.43 %); assay type: functional
[14] = Genotoxicity in Salmonella typhimurium TA100 by Ames test; assay type: toxicity; details: salmonella enterica subsp. enterica serovar typhimurium
[15] = AUC (0 to infinity) in Sprague-Dawley rat at 20 mg/kg, iv measured upto 12 hrs by LC-MS/MS analysis; assay type: ADME, organism-based; design: route intravenous, dose 20 mg/kg, time <=12; details: in vivo
PC-3 = experiment: Cytotoxicity against human PC-3 cells assessed as reduction in cell viability incubated for 48 hrs by MTT assay; assay type: functional, cell-based; details: PC-3, 48 h
MDA-MB-231 [16] = experiment: Induction of cell cycle arrest in human MDA-MB-231 cells assessed as G0/G1 phase accumulation at 2 uM incubated for 24 hrs by PI staining based flow cytometry analysis (reference value: 29.10 %); assay type: functional
[17] = Cmax in Sprague-Dawley rat at 20 mg/kg, po measured upto 12 hrs by LC-MS/MS analysis; assay type: ADME, organism-based; design: route oral, dose 20 mg/kg, time <=12; details: in vivo
[18] = target: Voltage-gated inwardly rectifying potassium channel KCNH2 (Homo sapiens, UniProt Q12809); experiment: Inhibition of human ERG
Chain of Voltage-gated inwardly rectifying potassium channel KCNH2 (Q12809 whole entry): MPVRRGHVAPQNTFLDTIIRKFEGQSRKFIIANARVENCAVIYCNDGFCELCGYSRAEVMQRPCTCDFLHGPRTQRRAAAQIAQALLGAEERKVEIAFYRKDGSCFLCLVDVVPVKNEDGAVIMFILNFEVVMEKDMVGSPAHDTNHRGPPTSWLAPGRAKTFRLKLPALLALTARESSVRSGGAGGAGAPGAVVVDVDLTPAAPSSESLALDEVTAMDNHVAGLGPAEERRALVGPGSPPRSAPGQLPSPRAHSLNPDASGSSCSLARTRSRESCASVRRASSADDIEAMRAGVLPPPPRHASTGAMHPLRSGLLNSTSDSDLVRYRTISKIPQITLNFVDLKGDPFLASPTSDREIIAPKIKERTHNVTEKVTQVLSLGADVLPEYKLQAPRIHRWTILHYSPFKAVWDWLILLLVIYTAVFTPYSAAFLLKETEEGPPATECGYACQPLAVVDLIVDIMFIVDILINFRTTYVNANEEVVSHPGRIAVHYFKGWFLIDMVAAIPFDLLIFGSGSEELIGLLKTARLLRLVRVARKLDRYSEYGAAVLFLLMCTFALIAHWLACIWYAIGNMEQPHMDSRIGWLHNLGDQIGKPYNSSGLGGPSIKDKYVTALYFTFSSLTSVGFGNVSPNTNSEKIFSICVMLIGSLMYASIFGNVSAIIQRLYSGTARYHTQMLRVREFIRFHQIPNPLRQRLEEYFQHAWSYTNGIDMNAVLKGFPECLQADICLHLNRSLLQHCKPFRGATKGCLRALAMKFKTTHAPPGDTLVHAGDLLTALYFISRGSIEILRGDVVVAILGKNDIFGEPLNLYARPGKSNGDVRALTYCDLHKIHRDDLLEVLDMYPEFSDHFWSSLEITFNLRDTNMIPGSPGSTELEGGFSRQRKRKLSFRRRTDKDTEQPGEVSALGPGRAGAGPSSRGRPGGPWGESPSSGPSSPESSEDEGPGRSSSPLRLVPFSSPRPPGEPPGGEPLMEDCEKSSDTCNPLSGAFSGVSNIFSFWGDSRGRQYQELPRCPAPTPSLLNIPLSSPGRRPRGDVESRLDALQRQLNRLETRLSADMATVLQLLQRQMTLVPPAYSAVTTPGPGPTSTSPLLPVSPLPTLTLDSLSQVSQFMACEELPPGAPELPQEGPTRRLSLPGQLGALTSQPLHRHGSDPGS

[19] = Half life in Sprague-Dawley rat at 20 mg/kg, po measured upto 12 hrs by LC-MS/MS analysis; assay type: ADME, organism-based; details: in vivo
MDA-MB-231 [20] = experiment: Induction of apoptosis in human MDA-MB-231 cells assessed as necrotic cells at 2.5 uM incubated for 72 hrs by annexinV-FITC and PI staining based flow cytometry analysis (reference value: 0.330 %); assay type: functional
[21] = Tmax in Sprague-Dawley rat at 20 mg/kg, po measured upto 12 hrs by LC-MS/MS analysis; assay type: ADME, organism-based; details: in vivo
4T1 [22] = experiment: Induction of apoptosis in mouse 4T1 cells assessed as late apoptotic cells at 5 uM incubated for 72 hrs by annexinV-FITC and PI staining based flow cytometry analysis (reference value: 2.24 %); assay type: functional
4T1 [23] = experiment: Induction of apoptosis in mouse 4T1 cells assessed as early apoptotic cells at 2.5 uM incubated for 72 hrs by annexinV-FITC and PI staining based flow cytometry analysis (reference value: 1.65 %); assay type: functional
MDA-MB-231 [24] = experiment: Induction of apoptosis in human MDA-MB-231 cells assessed as increase in PARP cleavage incubated for 48 hrs by Western blot analysis; assay type: functional, cell-based; details: dose 0.5-10 µM
Histone deacetylase 8 = Histone deacetylase 8 (Homo sapiens, UniProt Q9BY41); experiment: Inhibition of recombinant human N-terminal GST-tagged full length HDAC-8 expressed in baculovirus infected in Sf9 cells using Boc-Lys (q-Ac)-AMC as substrate incubated for 10 mins followed by substrate addition and measured after 30 mins by fluorescence based assay
Chain of Histone deacetylase 8 (Q9BY41 whole entry): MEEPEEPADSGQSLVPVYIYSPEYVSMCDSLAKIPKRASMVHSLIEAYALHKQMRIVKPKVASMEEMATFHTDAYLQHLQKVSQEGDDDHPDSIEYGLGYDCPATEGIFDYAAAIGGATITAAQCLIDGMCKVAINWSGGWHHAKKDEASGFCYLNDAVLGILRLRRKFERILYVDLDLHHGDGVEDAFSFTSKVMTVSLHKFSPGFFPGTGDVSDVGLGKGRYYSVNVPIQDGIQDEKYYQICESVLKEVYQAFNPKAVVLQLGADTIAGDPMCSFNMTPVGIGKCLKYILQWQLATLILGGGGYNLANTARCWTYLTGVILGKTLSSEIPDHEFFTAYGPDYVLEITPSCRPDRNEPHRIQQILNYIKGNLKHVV

NCI-H460 = experiment: Cytotoxicity against human NCI-H460 cells assessed as reduction in cell viability incubated for 48 hrs by MTT assay; assay type: functional, cell-based; details: NCI-H460, 48 h
MDA-MB-231 [25] = experiment: Induction of cell cycle arrest in human MDA-MB-231 cells assessed as G0/G1 phase accumulation at 1 uM incubated for 24 hrs by PI staining based flow cytometry analysis (reference value: 29.10 %); assay type: functional
SMMC-7721 = experiment: Cytotoxicity against human SMMC-7721 cells assessed as reduction in cell viability incubated for 48 hrs by MTT assay; assay type: functional, cell-based; details: SMMC-7721, 48 h
Histone deacetylase 5 = Histone deacetylase 5 (Homo sapiens, UniProt Q9UQL6); experiment: as §1, with “HDAC-5 (617 to end residues)” for “full length HDAC-6”, “cells at 10 uM” for “cells”, “assay relative to control” for “assay”; details: time 40.0 min
Chain of Histone deacetylase 5 (Q9UQL6 whole entry): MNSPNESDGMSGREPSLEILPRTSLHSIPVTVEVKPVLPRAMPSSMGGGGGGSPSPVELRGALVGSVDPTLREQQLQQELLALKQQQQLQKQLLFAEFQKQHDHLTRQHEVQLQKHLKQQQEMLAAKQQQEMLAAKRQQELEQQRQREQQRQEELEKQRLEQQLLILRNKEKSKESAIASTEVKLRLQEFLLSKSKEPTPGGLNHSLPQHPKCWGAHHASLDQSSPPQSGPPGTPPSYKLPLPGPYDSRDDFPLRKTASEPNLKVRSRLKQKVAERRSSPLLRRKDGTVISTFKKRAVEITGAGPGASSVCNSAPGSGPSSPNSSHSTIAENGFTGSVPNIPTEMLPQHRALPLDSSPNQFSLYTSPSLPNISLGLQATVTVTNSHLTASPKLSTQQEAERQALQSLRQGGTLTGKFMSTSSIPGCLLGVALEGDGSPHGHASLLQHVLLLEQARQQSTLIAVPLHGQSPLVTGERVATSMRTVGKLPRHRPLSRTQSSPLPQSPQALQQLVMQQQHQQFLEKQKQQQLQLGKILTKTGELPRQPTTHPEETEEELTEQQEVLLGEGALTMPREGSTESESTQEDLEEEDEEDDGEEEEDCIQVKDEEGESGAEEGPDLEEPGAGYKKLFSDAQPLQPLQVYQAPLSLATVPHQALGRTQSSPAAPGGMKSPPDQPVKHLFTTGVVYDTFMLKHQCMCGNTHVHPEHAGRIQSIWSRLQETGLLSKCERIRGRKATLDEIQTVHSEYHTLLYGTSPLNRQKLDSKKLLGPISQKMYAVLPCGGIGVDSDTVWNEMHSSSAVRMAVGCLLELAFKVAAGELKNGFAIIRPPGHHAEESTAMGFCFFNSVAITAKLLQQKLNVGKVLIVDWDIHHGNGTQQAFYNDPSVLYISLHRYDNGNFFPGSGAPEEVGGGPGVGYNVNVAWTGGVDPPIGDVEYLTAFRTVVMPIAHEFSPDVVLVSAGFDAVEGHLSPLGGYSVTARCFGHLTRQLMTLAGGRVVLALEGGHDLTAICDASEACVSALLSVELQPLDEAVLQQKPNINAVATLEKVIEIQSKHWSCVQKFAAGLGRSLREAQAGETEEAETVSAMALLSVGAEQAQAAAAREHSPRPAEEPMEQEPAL

MCF7 = experiment: Potency index, ratio of IC50 of SAHA to IC50 of compound for cytotoxicity against human MCF7 cells assessed as reduction in cell viability incubated for 48 hrs by MTT assay; assay type: functional
MDA-MB-231 [26] = experiment: Induction of apoptosis in human MDA-MB-231 cells assessed as early apoptotic cells at 5 uM incubated for 72 hrs by annexinV-FITC and PI staining based flow cytometry analysis (reference value: 5.57 %); assay type: functional
Bcap37 = experiment: Cytotoxicity against human Bcap37 cells assessed as reduction in cell viability incubated for 48 hrs by MTT assay; assay type: functional, cell-based; details: Bcap37, 48 h
PLC = experiment: Cytotoxicity against human PLC cells assessed as reduction in cell viability incubated for 48 hrs by MTT assay; assay type: functional, cell-based
[27] = Cmax in Sprague-Dawley rat at 20 mg/kg, iv measured upto 12 hrs by LC-MS/MS analysis; assay type: ADME, organism-based; design: route intravenous, dose 20 mg/kg, time <=12; details: in vivo

Q: For CN(C)CCOc1ccc(-c2cc(=O)c3c(O)cc(OCCCCCC(=O)NO)cc3o2)cc1.Cl, which IC50 (HepG2) is on record?
A: Its IC50 is 1160 nM.

Q: And the Activity [1]?
A: The Activity was “Non-Toxic”.

Q: What about the Activity (MDA-MB-231 [2]) of the same molecule?
A: The Activity was 23.1%.

Q: And the Activity [3]?
A: Its Activity is “Non-Toxic”.

Q: What about the Activity [4] of the same molecule?
A: Its Activity is “Non-Toxic”.

Q: What about the Activity (4T1 [5]) of the same molecule?
A: Its Activity is 33.9%.

Q: And the IC50 [6]?
A: The IC50 was 25.5 nM.

Q: What about the Activity (4T1 [7]) of the same molecule?
A: The Activity was 54.9%.

Q: And the Activity (MDA-MB-231 [8])?
A: The Activity was 24.3%.

Q: What about the Activity (4T1 [9]) of the same molecule?
A: The Activity was 11.51%.

Q: What about the MRT [10] of the same molecule?
A: The MRT was 1.1 h.

Q: What about the Activity (4T1 [11]) of the same molecule?
A: The Activity was 8.59%.

Q: What about the viability at 2.5 µM (4T1 [12]) of the same molecule?
A: Its viability at 2.5 µM is 32.9%.

Q: And the IC50 (A549)?
A: Its IC50 is 1080 nM.

Q: And the Activity (4T1 [13])?
A: The Activity was 25.58%.

Q: And the Activity [14]?
A: The Activity was “Toxic”.

Q: And the AUC(0-inf) [15]?
A: The AUC(0-inf) was 2840 ng·h/mL.

Q: What about the IC50 (PC-3) of the same molecule?
A: Its IC50 is 1920 nM.

Q: What about the Activity (MDA-MB-231 [16]) of the same molecule?
A: The Activity was 61.9%.

Q: What about the Cmax [17] of the same molecule?
A: Its Cmax is 1280 ng/mL.

Q: And the IC50 [18]?
A: The IC50 was 1200 nM.

Q: What about the half-life [19] of the same molecule?
A: The half-life was 14.9 min.

Q: What about the Activity (MDA-MB-231 [20]) of the same molecule?
A: The Activity was 0.11%.

Q: And the Tmax [21]?
A: The Tmax was 20 min.

Q: What about the Activity (4T1 [22]) of the same molecule?
A: The Activity was 21.9%.

Q: What about the Activity (4T1 [23]) of the same molecule?
A: Its Activity is 31.4%.

Q: What about the Activity (MDA-MB-231 [24]) of the same molecule?
A: The Activity was “Dose-dependent effect”.

Q: What about the IC50 (Histone deacetylase 8) of the same molecule?
A: Its IC50 is 2500 nM.

Q: What about the IC50 (NCI-H460) of the same molecule?
A: Its IC50 is 2720 nM.

Q: What about the Activity (MDA-MB-231 [25]) of the same molecule?
A: Its Activity is 49.09%.

Q: What about the IC50 (SMMC-7721) of the same molecule?
A: Its IC50 is 530 nM.

Q: And the inhibition (Histone deacetylase 5)?
A: The inhibition was 38%.

Q: And the “Ratio IC50” value (MCF7)?
A: Its value is 2.

Q: What about the Activity (MDA-MB-231 [26]) of the same molecule?
A: The Activity was 55%.

Q: And the IC50 (Bcap37)?
A: The IC50 was 3.28 µM.

Q: And the IC50 (PLC)?
A: The IC50 was 582 nM.

Q: What about the Cmax [27] of the same molecule?
A: Its Cmax is 2180 ng/mL.

From ChEMBL document CHEMBL4765432, “Design and synthesis of novel Flavone-based histone deacetylase inhibitors antagonizing activation of STAT3 in breast cancer” (Eur J Med Chem, 2020)
